Source: patent US10662195B2, “Protein kinase conjugates and inhibitors” (Celgene Avilomics Research, Inc., priority 2009, dated 2020)
Like-named read-outs stand apart in the source and are kept apart here.

Assays:
[1] = target: T1, PDGFRA (Homo sapiens, UniProt P16234); experiment: Assay for PDGFRa (Omnia); format: biochemical
T1 construct: purchased PV3811
Experimental: Briefly, 10× stock of PDGFRα (PV3811) enzyme, 1.13×ATP (AS001A) and Y12-Sox peptide substrates (KCZ1001) was prepared in 1× kinase reaction buffer consisting of 20 mM Tris, pH 7.5, 5 mM MgCl2, 1 mM EGTA, 5 mM β-glycerophosphate, 5% glycerol (10× stock, KB002A) and 0.2 mM DTT (DS001A). 5 μL of enzyme were pre-incubated in a Corning (#3574) 384-well, white, non-binding surface microtiter plate (Corning, N.Y.) for 30 min at 27° C. with a 0.5 μL volume of 50% DMSO and serially diluted compounds prepared in 50% DMSO. Kinase reactions were started with the addition of 45 μL of the ATP/Y9 or Y12-Sox peptide substrate mix and monitored every […] for 60 minutes at λex360/λem485 in a Synergy^4 plate reader from BioTek (Winooski, Vt.). At the conclusion of each assay, progress curves from each well were examined for linear reaction kinetics and fit statistics (R2, 95% confidence interval, absolute sum of squares). Initial velocity (0 minutes to 20+ minutes) from each reaction was determined from the slope of a plot of relative fluorescence units vs time (minutes) and then plotted against inhibitor concentration to estimate IC50 from log [Inhibitor] vs Response, Variable Slope model in GraphPad Prism from GraphPad Software (San Diego, Calif.).
[PDGFRα]=2-5 nM, [ATP]=60 μM and [Y9-Sox peptide]=10 μM (ATP KMapp=61 μM)
(§1) The reported IC50_APP and IC50 values are in units of nM.

[2] = target: KDR (Homo sapiens, UniProt P35968); experiment: KDR Omnia continuous-read kinase assay; format: biochemical; parameters: purchased Invitrogen or BPS Bioscience PV3660 or 40301
Experimental: (§2) A. KDR and FLT-3 Omnia Assay for Potency Assessment:
(§3) The protocol below describes a continuous-read kinase assay to measure inherent potency of Avila Therapeutics' compounds against active KDR and FLT-3 enzymes. The assay was performed substantially as described by the vendor (Invitrogen, Carlsbad, Calif.; http://www.invitrogen.com/content.cfm?pageid=11338.)
Briefly, 10× stocks of KDR from Invitrogen or BPS Bioscience (PV3660 or 40301) and FLT-3 (PV3182) enzymes, 1.13×ATP (AS001A) and Y9-Sox or Y12-Sox peptide substrates (KCZ1001) were prepared in 1× kinase reaction buffer consisting of 20 mM Tris, pH 7.5, 5 mM MgCl2, 1 mM EGTA, 5 mM β-glycerophosphate, 5% glycerol (10× stock, KB002A) and 0.2 mM DTT (DS001A). 5 μL of enzyme were pre-incubated in a Corning (#3574) 384-well, white, non-binding surface microtiter plate (Corning, N.Y.) for 30 min at 27° C. with a 0.5 μL volume of 50% DMSO and serially diluted compounds prepared in 50% DMSO. Kinase reactions were started with the addition of 45 μL of the ATP/Y9 or Y5-Sox peptide substrate mix and monitored every 30-90 seconds for 60 minutes at λex360/λem485 in a Synergy^4 plate reader from BioTek (Winooski, Vt.). At the conclusion of each assay, progress curves from each well were examined for linear reaction kinetics and fit statistics (R^2, 95% confidence interval, absolute sum of squares). Initial velocity (0 minutes to 20+ minutes) from each reaction was determined from the slope of a plot of relative fluorescence units vs time (minutes) and then plotted against inhibitor concentration to estimate IC50 from Log [Inhibitor] vs Response, Variable Slope model in GraphPad Prism from GraphPad Software (San Diego, Calif.). […]
as §1

[3] = target: CKIT (Homo sapiens, UniProt P10721); experiment: c-Kit Omnia kinase assay; format: biochemical; conditions: reversible reference compounds; read-out: IC50 CKIT
[4] = target: T2, FLT3 (Homo sapiens, UniProt P36888); experiment: FLT-3 Omnia continuous-read kinase assay; format: biochemical
T2 construct: purchased PV3182
T2 sequence (P36888 27-993): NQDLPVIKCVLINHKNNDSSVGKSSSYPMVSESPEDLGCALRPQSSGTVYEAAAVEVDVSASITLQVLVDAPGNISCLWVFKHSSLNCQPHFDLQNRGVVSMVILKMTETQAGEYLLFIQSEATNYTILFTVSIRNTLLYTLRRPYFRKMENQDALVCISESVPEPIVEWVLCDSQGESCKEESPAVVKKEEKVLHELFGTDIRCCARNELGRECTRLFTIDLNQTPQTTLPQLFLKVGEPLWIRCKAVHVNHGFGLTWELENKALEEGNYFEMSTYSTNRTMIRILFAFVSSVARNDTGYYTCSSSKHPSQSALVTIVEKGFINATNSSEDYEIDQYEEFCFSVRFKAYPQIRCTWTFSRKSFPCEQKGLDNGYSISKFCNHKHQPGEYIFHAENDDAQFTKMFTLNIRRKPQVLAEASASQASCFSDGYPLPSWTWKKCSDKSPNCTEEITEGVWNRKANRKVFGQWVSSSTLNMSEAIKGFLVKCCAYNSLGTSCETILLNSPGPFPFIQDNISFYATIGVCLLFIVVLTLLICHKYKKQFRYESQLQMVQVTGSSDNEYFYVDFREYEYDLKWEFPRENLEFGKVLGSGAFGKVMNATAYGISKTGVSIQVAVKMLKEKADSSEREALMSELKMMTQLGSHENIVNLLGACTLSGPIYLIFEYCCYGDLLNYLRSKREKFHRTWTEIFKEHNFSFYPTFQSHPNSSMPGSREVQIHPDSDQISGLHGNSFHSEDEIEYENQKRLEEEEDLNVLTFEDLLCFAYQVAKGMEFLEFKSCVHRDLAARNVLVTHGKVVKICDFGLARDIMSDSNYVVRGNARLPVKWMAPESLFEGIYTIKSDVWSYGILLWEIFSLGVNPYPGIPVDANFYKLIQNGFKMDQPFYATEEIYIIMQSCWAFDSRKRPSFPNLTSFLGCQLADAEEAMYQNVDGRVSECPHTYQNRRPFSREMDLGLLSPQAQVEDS
Experimental: as §2, §3
Briefly, 10× stocks of KDR from Invitrogen or BPS Bioscience (PV3660 or 40301) and FLT-3 (PV3182) enzymes, 1.13×ATP (AS001A) and Y9-Sox or Y12-Sox peptide substrates (KCZ1001) were prepared in 1× kinase reaction buffer consisting of 20 mM Tris, pH 7.5, 5 mM MgCl2, 1 mM EGTA, 5 mM β-glycerophosphate, 5% glycerol (10× stock, KB002A) and 0.2 mM DTT (DS001A). 5 μL of enzyme were pre-incubated in a Corning (#3574) 384-well, white, non-binding surface microtiter plate (Corning, N.Y.) for 30 min at 27° C. with a 0.5 μL volume of 50% DMSO and serially diluted compounds prepared in 50% DMSO. Kinase reactions were started with the addition of 45 μL of the ATP/Y9 or Y5-Sox peptide substrate mix and monitored every 30-90 seconds for 60 minutes at λex360/λem485 in a Synergy^4 plate reader from BioTek (Winooski, Vt.). At the conclusion of each assay, progress curves from each well were examined for linear reaction kinetics and fit statistics (R^2, 95% confidence interval, absolute sum of squares). Initial velocity (0 minutes to 20+ minutes) from each reaction was determined from the slope of a plot of relative fluorescence units vs time (minutes) and then plotted against inhibitor concentration to estimate IC50 from Log [Inhibitor] vs Response, Variable Slope model in GraphPad Prism from GraphPad Software (San Diego, Calif.).
[FLT-3]=15 nM, [ATP]=500 μM and [Y5-Sox peptide]=10 μM (ATP KMapp=470 μM)
as §1

[5] = tested on: CKIT; experiment: cKIT washout assay in GIST882 cells (C-kit phosphorylation, western blot); format: cell-based; conditions: 1 uM for 90 minutes, then washed free of compound
Experimental: GIST882 cells (See, Bauer et al., Cancer Research, 66(18):9153-9161 (2006)) were seeded in a 6 well plate at a density of 8×10^5 cells/well in complete media. The next day cells were treated with 1 uM compound diluted in complete media for 90 minutes. After 90 minutes, the media was removed and cells were washed with compound-free media. Cells were washed every 2 hours and resuspended in fresh compound-free media. Cells were collected at specified time points, lysed in Cell Extraction Buffer (Invitrogen FNN0011) supplemented with Roche complete protease inhibitor tablets (Roche 11697498001) and phosphatase inhibitors (Roche 04 906 837 001) and lysates were sheared by passing through a 28.5 gauge syringe 10 times each. Protein concentrations were measured and 10 ug total protein lysate was loaded in each lane. C-kit phosphorylation was assayed by western blot with pTyr (4G10) antibody and total kit antibody from Cell Signaling Technology.
Sorafenib and XVIII-11 were tested for cellular activity in a GIST882 cell line at 1 micromolar. The results are depicted in FIGS. 2a and 2b where it is shown that XVIII-11 maintained c-KIT enzyme inhibition in […] cells after “washout” for at least 8 hours. […] In order to understand whether there was a prolonged inhibition with the irreversible inhibitor the cells were washed free of compound. For the reversible inhibitor, Sorafenib, the inhibitory activity of cKIT and downstream signaling was overcome whereas the irreversible inhibition of XVIII-11 persisted for at least 8 hours.

[6] = target: CKIT D816V (Homo sapiens, UniProt P10721, D816V); experiment: c-Kit mutant Omnia kinase assay; format: biochemical; conditions: read-out: IC50_APP CKIT D816V
[7] = 30 min pre-incubation, read-out: IC50_APP KDR
[8] = 30 min pre-incubation, [ATP]=500 μM, read-out: IC50_APP FLT3
[9] = 30 min pre-incubation, [ATP]=60 μM, read-out: IC50_APP PDGFRA

Chain of KDR (P35968 20-1356): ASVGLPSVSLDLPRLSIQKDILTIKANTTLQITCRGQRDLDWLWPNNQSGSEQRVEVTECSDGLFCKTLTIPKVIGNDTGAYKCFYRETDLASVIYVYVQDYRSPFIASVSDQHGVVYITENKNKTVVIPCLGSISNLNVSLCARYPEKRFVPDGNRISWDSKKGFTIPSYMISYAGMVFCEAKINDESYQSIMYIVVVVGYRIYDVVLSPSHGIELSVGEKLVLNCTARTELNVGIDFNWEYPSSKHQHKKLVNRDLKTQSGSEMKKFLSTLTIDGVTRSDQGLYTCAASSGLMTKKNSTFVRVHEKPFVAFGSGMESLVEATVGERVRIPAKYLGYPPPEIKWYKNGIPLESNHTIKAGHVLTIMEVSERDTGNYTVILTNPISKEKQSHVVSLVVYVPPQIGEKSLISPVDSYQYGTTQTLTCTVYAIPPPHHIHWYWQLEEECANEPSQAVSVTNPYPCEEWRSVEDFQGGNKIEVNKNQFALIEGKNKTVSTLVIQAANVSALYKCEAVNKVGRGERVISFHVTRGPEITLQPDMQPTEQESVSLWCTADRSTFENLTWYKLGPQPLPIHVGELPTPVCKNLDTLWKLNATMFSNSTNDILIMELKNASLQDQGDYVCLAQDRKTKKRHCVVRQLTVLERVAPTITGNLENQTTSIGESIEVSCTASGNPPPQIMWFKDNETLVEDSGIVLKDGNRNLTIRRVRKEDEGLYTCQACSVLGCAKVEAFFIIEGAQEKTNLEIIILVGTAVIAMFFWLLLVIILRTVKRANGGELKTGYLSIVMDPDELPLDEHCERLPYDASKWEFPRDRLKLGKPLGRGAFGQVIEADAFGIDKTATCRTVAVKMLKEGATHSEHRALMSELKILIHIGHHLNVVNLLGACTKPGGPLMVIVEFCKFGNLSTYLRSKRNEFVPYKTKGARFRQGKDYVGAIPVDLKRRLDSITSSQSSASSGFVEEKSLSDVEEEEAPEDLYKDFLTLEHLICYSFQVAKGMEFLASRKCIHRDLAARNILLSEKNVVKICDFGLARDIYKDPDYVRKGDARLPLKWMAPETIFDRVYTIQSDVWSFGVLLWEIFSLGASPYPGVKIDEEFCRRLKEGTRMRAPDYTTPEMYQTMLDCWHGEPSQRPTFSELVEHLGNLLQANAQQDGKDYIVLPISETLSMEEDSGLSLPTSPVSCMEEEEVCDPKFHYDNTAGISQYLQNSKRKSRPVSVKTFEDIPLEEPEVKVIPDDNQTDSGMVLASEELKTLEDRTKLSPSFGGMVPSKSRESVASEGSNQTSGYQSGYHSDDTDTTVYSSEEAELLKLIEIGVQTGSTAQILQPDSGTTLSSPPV
T1 sequence (P16234 24-1089): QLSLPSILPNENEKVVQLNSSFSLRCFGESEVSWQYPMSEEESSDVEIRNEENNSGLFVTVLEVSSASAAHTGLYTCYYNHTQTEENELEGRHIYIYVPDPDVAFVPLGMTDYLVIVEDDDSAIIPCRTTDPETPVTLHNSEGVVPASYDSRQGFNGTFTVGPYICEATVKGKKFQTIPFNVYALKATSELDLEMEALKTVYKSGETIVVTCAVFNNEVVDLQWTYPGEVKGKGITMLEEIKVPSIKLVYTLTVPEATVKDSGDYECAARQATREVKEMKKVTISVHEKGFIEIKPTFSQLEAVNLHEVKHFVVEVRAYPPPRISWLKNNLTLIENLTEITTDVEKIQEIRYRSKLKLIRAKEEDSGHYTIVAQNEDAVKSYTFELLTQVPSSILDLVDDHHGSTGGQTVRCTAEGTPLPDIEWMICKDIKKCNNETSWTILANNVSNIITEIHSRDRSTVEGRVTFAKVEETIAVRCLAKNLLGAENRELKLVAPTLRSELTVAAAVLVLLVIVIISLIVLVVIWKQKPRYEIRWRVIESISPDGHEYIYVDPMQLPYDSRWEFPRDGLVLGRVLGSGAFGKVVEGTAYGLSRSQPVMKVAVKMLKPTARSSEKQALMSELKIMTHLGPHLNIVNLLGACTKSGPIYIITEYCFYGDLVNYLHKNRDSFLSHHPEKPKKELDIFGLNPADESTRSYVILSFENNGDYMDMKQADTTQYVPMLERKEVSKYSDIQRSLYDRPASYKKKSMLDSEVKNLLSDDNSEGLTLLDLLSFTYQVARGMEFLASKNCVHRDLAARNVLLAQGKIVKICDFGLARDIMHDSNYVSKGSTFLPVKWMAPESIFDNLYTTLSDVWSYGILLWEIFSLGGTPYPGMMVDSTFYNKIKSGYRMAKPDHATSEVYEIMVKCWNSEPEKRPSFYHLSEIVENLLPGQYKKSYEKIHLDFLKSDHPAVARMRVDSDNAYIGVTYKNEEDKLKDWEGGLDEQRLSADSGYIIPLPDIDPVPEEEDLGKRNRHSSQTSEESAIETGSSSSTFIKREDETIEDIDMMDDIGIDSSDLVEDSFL
Chain of CKIT D816V (P10721 26-976 D816V): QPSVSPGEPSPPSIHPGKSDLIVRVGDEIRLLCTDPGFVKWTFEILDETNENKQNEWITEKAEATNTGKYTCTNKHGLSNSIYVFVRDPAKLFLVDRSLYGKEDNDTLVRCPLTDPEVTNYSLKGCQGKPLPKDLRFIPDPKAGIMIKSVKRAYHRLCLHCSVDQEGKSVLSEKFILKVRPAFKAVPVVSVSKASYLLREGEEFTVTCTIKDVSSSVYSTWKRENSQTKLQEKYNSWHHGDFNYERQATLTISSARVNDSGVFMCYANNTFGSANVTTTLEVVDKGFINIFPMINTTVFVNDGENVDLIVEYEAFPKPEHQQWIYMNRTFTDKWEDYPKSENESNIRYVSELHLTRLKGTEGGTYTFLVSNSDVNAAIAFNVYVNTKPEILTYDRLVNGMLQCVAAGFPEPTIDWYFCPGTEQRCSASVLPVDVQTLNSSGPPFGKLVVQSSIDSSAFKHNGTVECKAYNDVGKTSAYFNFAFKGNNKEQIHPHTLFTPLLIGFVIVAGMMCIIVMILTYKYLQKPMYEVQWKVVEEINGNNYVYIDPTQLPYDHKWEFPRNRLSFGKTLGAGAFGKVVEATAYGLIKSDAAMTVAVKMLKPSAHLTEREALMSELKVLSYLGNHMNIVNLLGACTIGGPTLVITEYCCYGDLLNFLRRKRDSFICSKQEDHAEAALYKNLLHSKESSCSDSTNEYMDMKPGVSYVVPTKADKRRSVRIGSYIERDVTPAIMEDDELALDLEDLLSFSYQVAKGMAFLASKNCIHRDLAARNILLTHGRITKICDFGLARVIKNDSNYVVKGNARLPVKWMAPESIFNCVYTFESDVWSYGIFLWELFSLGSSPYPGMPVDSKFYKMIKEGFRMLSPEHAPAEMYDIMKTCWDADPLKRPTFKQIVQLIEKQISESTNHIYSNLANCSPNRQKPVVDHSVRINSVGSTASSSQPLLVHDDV
Chain of CKIT (Homo sapiens, UniProt P10721) (P10721 26-976): as the sequence (P10721 26-976 D816V) above, with V791D counted along it

Row | Structure (SMILES) | IC50 ([1]; reversible reference compounds, read-out: IC50 PDGFRA) | IC50 ([2]; reversible reference compounds, read-out: IC50 KDR) | IC50 [3] | IC50 ([4]; reversible reference compounds, read-out: IC50 FLT3) | duration of c-KIT inhibition after washout [5] | IC50 [2, 7] | IC50 [6] | IC50 [4, 8] | IC50 [1, 9]
1 | CCC(=O)Nc1ccc(NC(=O)Nc2ccc(Oc3ccnc(C(=O)NC)c3)cc2)cc1C(F)(F)F [Reversible Reference Compound 3, 4-(4-(3-(4-(Propionamido)-3-(trifluoromethyl)phenyl)ureido)phenoxy)-N-methylpicolinamide, reference compound] | 4.15 nM | 39.4 nM | 16.3 nM | 0.461 nM |  |  |  |  | 
2 | C=CC(=O)Nc1ccc(NC(=O)Nc2ccc(Oc3ccnc(C(=O)NC)c3)cc2)cc1C(F)(F)F [XVIII-11, 4-(4-(3-(4-Acrylamido-3-(trifluoromethyl)phenyl)ureido)phenoxy)-N-methylpicolinamide] |  |  |  |  | at least 8 hours | 26.9 nM | 3.42 nM | 1.99 nM | 
3 | CNC(=O)c1cc(Oc2ccc(NC(=O)Nc3ccc(NC(=O)CCl)c(C(F)(F)F)c3)cc2)ccn1 [XVIII-13, 4-(4-(3-(4-(2-Chloroacetamido)-3-(trifluoromethyl)phenyl)ureido)phenoxy)-N-methylpicolinamide] |  |  |  |  |  | 0.95 nM |  | 0.508 nM | 0.508 nM
4 | CNC(=O)c1cc(Oc2ccc(NC(=O)Nc3ccc(NC(=O)C(C)Cl)c(C(F)(F)F)c3)cc2)ccn1 (centres unmarked) [XVIII-14, 4-(4-(3-(4-(2-Chloropropionamido)-3-(trifluoromethyl)phenyl)ureido)phenoxy)-N-methylpicolinamide] |  |  |  |  |  | 6.94 nM |  | 107 nM | 1.54 nM
